What was measured:
human platelets [1] = system: human platelets
Procedure: Platelet aggregation assays were carried out as follows: Platelet aggregation and secretion was measured in a turbidometric platelet aggregometer (Chronolog) at 37° C. with stirring (1000 rpm). Washed platelets (3×10^8/ml) in modified Tyrode's buffer were stimulated with thrombin (Enzyme Research Laboratories). For talin knockdown platelet aggregation assay stimulated with manganese and ADP, manganese and ADP was mixed prior to experiment to achieve final concentration of 1 mM manganese and 5 μM ADP in reaction tube. Aggregation traces shown are representative of at least three independent experiments.
Platelet aggregation assays were performed with myristoylated peptide mP5, myristoylated peptide of SEQ: ID NO: 87, or their respective scarmbled control peptides, as essentially described herein. Briefly, washed human platelets were preincubated with 25, 50, 100, 250, or 500 μM peptide solubilized in DMSO.

[2] = C57BL/6 mice, FeCl3 carotid artery injury, compared to scrambled control ERAFEE
Procedure: In this study, adult mice are anesthetized by intraperitoneal injection of pentobarbital (120 mg/kg). The left common carotid artery is surgically exposed and a miniature Doppler flow probe (Model 0.5VB; Transonic Systems, Ithaca, N.Y.) is placed on the surface of the artery. After adding 0.9% sodium chloride solution in the surgical wound to allow Doppler monitoring, baseline blood flow is recorded using a Transonic flowmeter. Thereafter, sodium chloride solution is removed and filter paper (round, 1.0 mm in diameter) saturated with 10% FeCl3 is applied to the surface of the carotid artery immediately proximal to the flow probe. After 3 minutes, the filter paper is removed, saline solution is again administered to the wound, and carotid blood flow is monitored. If occlusive thrombosis occurs to the injured carotid artery, blood flow is reduced to zero. ExE motif peptide micelles and controls are injected i.v. via the tail vein in C57BL/6 mice, then tested for occlusive thrombosis using this model.

mouse platelets = experiment: Mouse platelet spreading on immobilized fibrinogen; type: cell-based
c-Src = system: c-Src
Procedure: Two different Gα13 siRNA target sequences were used: siRNA #1, 5′-[…] (SEQ ID NO: 56); siRNAi #2, 5′-[…] (SEQ ID NO: 57). Scrambled siRNA sequence is: 5′-[…]-3′ (SEQ ID NO: 58). These sequences are conserved in hamsters and mice. Lentivirus was prepared by co-transfection of pLL3.7-scrambled siRNA or pLL3.7-Gα13 siRNA (#1 and #2) with pLP1, pLP2 and pLP/VSVG plasmids (Invitrogen) into ˜90% confluent 293FT cells using Lipofectamine 2000. 48 hours after transfection, cell culture medium containing virus was filtered, titered and stored at −80° C. Bone manow cells from 6-8 week old healthy C57/BL mice were isolated aseptically from femurs and tibias. Stem cells were negatively selected by MACS Lineage cell depletion kit (Miltenyi Biotec) and cultured in RPMI 1640 complete medium with 10 ng/ml interleukin-3, 10 ng/ml interleukin-6, 10 ng/ml granulocyte-macrophage colony stimulating factor (GM-CSF), and 100 ng/ml stem cell factor (SCF). 50 multiplicity of infection (MOI) lenti-virus was used to infect mice bone marrow stem cells twice with 6 μg/ml polybrene. 48 hours after infection, 5×10^6 stem cells resuspended in PBS were transplanted by retrobulbar injection into lethally irradiated (10.5 Gy) C57/BL mice one day after irradiation (S11). The siRNA-resistant mutants of Gα13 were generated by PCR.

RhoA [3] = conditions: mouse platelets from siRNA-transfected stem cells
Procedure: (FIG. 6B) Scrambled siRNA, Gα13 siRNA #1- and Gα13 siRNA #2-transfected platelets were allowed to adhere to immobilized fibrinogen for the indicated time, and analyzed for c-Src activation and RhoA activity.
(§1) Platelets in modified Tyrode's buffer or adherent on immobilized fibrinogen were lysed quickly in 0.8 ml lysis buffer (50 mM Tris, pH 7.4, 10 mM MgCl2, 500 mM NaCl, 1% Triton X-100, 0.1% SDS, 0.5% deoxycholate, 10 μg/ml each of aprotinin and leupeptin, 1 mM phenylmethylsulfonyl fluoride, and 200 μM sodium vanadate). Lysates were cleared by centrifugation at 18,000 g for 2 minutes at 4° C., and the supernatant was incubated for 1 hour with 30 μg purified GST-Rhotekin RhoA-binding domain fusion protein (GST-RBD) bound to glutathione-Sepharose beads (S10). Samples were washed three times using washing buffer (50 mM Tris, pH 7.4, 10 mM MgCl2, 150 mM NaCl, 1% Triton X-100) and then immunoblotted with an anti-RhoA monoclonal antibody. Cell lysates were also immunoblotted with anti-RhoA as loading control.

Gα13 binding to β3 = target: T1, Gα13 binding to β3 (Homo sapiens, UniProt P05106+Q14344); experiment: Co-immunoprecipitation of β3 with Gα13 from platelet lysates; conditions: platelets stimulated with thrombin, 2 mM RGDS
T1 construct: Proteins from platelet lysates were immunoprecipitated with control IgG or antibody to Gα13; The integrin αIIbβ3 was co-immunoprecipitated by anti-Gα13 antibody, but not control IgG, from platelet lysates; endogenous in cells; host or cells: washed human platelets (lysates)
T1 sequence (Q14344 1-377): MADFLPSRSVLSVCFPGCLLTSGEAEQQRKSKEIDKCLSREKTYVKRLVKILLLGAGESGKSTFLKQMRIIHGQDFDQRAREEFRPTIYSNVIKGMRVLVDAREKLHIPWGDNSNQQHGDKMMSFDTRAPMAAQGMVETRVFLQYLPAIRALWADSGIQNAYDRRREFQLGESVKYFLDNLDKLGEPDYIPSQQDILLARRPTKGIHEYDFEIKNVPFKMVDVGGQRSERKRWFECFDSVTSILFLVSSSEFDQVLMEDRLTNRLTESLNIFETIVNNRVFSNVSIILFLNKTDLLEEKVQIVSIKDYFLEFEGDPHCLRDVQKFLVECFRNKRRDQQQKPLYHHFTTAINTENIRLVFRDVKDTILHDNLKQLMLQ
T1 sequence (P05106 27-788): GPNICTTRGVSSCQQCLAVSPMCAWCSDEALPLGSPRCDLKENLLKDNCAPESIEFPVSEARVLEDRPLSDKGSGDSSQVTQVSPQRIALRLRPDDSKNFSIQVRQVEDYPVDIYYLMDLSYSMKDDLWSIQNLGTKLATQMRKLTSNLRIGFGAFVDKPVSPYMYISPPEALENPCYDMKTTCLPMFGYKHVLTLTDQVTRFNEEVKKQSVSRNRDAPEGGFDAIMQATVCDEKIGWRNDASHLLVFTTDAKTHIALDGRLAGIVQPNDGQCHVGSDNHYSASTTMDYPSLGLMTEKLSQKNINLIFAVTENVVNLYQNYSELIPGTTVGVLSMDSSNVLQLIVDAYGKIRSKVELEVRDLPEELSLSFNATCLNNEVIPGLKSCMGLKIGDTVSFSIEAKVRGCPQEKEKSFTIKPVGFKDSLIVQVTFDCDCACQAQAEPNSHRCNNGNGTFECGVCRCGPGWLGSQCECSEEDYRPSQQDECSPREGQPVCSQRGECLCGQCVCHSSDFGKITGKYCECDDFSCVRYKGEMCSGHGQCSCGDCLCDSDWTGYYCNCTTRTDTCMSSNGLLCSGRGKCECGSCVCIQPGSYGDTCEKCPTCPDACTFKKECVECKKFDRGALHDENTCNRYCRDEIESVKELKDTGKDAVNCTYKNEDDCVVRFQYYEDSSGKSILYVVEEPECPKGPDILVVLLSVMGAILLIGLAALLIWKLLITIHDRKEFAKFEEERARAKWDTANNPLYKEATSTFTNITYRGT
Procedure: As previously described (S7), cell lysates were incubated with 2 μg/ml of D57 (antibody to integrin αIIbβ3), LJP3 (antibody against GPIb), or mouse IgG, and further incubated with protein G-conjugated Sepharose beads. Cell lysates were also incubated with rabbit anti-Gα13 IgG antibody (1.5 μg/ml) or an equal amount of rabbit IgG and further incubated with protein A-conjugated Sepharose beads. After 3-6 washes with lysis buffer, immunoprecipitates were analyzed by SDS-polyacrylamide gel electrophoresis and Western blots with antibodies against β3 (MAb15), GPIb (anti-IbαC (S8)) or Gα13. In some experiments, 1 μM GDP, 1 μM GTPγS or 30 μM AlF4^− were added to the reaction to assess the effect of Gα13 activation on integrin binding. In other experiments, 250 μM mSRI or scrambled control peptide was incubated with platelet lysates prior to immunoprecipitation. GST bead pull down analysis was previously described (S7). Purified Gα13 was incubated with glutathione beads-bound to GST, GST-β1CD or GST-β3 CD at 4° C. overnight. Bead-bound proteins were analyzed by immunoblotting. For GST-β3CD cDNA construction, integrin-β3 cytoplasmic domain (716-762) cDNA was generated by PCR and cloned into pGEX-4T2 vector using Bam HI and Xho I restriction sites. The forward primer is 5′-[…]-3′ (SEQ ID NO: 48); the reverse primer is 5′-[…]-3′ (SEQ ID NO: 49). For GST-I31CD cDNA construction, β1 cytoplasmic domain (752-798) cDNA was amplified by PCR and cloned into pGEX-4T1 vector using EcoRI and Xho I restriction sites. The primer sequences are: (1) forward: 5′-[…]-3′ (SEQ ID NO: 50); (2) reverse: […]-3′ (SEQ ID NO: 51). GST, GST-β1CD and GST-β3CD were purified from BL21 (DE3) E. coli using glutathione-conjugated beads.
Cell lysates were incubated with rabbit anti-Gα13 IgG (1.5 μg/ml), anti-integrin β3 rabbit serum (5 μl/ml) or an equal amount of rabbit IgG or pre-immune serum at 4° C. overnight, and subsequently with protein A-conjugated Sepharose beads for 1 hour. For the integrin β3 clustering experiment, human platelets (3×10^8) were stimulated with 0.025 U/ml α-thrombin for 2 minutes at room temperature (to avoid platelet aggregation) with or without 2 mM RGDS, then incubated with 5 μl anti-integrin β3 8053 rabbit serum at room temperature for 1 hour, and 5 μg goat anti-rabbit secondary antibody for another 1 hour. Platelets were then solubilized in modified RIPA Buffer. For the un-clustering control and pre-immune serum control, cells were solubilized in modified RIPA Buffer first, than incubated with 5 μl 8053 serum or pre-immune serum. After 3-6 washes with lysis buffer, immunoprecipitates were analyzed by SDS-polyacrylamide gel electrophoresis and Western blots using antibodies against β3, talin, or Gα13. In some experiments, 500 μM control or inhibitor peptides, mP5, mP7 and mP13 were incubated with platelet lysates prior to immunoprecipitation, or 2 mM RGDS was added into washed human platelets before stimulation by 0.025 U/ml α-thrombin. GST bead pull down analysis was previously described^8. Purified Gα13 or MBP-talin head were incubated with glutathione beads-bound to GST or GST-β3CD at 4° C. overnight. Bead-bound proteins were analyzed by immunoblotting.

RhoA [4] = experiment: RhoA activity assay (GST-RBD pull down) in platelets; type: cell-based, human; conditions: platelets stimulated with thrombin, 2 mM RGDS
Procedure: as §1

human platelets [5] = type: cell-based
Procedure: The clots were photographed at various time points. […] Statistical significance was determined using t-test.
Studies using human platelets were approved by institutional review board of University of Illinois at Chicago.
Coverslides were pre-coated with 100 μg/ml fibrinogen and blocked with 5% BSA in PBS. 300 μl αIIbβ3-expressing CHO cells (expressing WT or mutant integrins; 1×10^5/ml) or platelets (1×10^7/ml) suspended in Tyrode's buffer were added to coverslides and incubated at 37° C. for various lengths of time. Cells were fixed with 4% paraformaldehyde (PFA) for 10 minutes and permeabilized with 0.1% Triton X-100 in PBS for 2 minutes. After blocking with 5% BSA for 10 minutes, coverslides were incubated with 0.2 μg/ml mAb 15, or Alexa Fluor-546 conjugated phalloidin. For mouse platelets re-express wild type β3 or the AAA mutant of β3, β3 was immuno-stained with the anti-β3 monoclonal antibody MAb 15 and Alexa Fluor-546 conjugated phalloidin. The slides were scanned with a Zeiss LSM5 10 META confocal microscope as previously described^11

FEEERA
inhibition of platelet aggregation, doses compared to the mP5 peptide (human platelets [1]; 25-500 μM peptide in DMSO, 0.09 U/ml thrombin, washed human platelets): inhibit platelet aggregation at lower doses
concentration required for the maximal effect on in vitro platelet aggregation (human platelets [1]; preliminary dose-dependent study, DMSO solution vs micellar formulation): 250 µM
time to occlusion [2]: increased

5′-GGAGATCGACAAATGCCTG [Gα13 siRNA #2]
platelet spreading (mouse platelets): inhibited
c-Src activation (c-Src): inhibited
activation of RhoA (RhoA [3]): accelerated

5′-GTCCACCTTCCTGAAGCAG [Gα13 siRNA #1]
platelet spreading (mouse platelets): inhibited
c-Src activation (c-Src): inhibited
activation of RhoA (RhoA [3]): accelerated

RGDS [reference compound]
Thrombin-stimulated binding of Gα13 to αIIbβ3 (Gα13 binding to β3): inhibited
RhoA inhibition simultaneous with thrombin-stimulated Gα13-αIIbβ3 binding (RhoA [4]): inhibited

CC(=O)Oc1ccccc1C(=O)O [aspirin, reference compound]
platelet spreading on fibrinogen (mouse platelets; mouse platelets pre-incubated with 1 mM aspirin): did not affect

C[C@@H](N)[C@H]1CC[C@H](C(=O)Nc2ccncc2)CC1 [Y27632, reference compound]
inhibitory effect of mP5 on platelet spreading (reversal) (human platelets [5]; platelets treated with mP5): reversed
inhibitory effect of mSRI on platelet spreading (reversal) (human platelets [5]; platelets treated with mSRI): reversed
inhibitory effect of Gα13 depletion on platelet spreading (reversal) (mouse platelets; Gα13-depleted mouse platelets): reversed
